Test results reported in patent US20070197452A1, “Treatment of amyloid-related diseases” (priority 2006, published 2007).

How the values were obtained:
[1] = target: T1, Aβ oligomeric species (Homo sapiens, UniProt P05067); assay: Western blot of soluble brain fractions for Aβ species; format: in vivo, mouse
T1 construct: from tissue; host or cells: soluble fraction of hemi-brain homogenates of TgCRND8 transgenic mice
Description: Soluble Aβ oligomer analyses. Levels of soluble Aβ oligomers were measured by a dot-blot assay with oligomer-specific antibodies on all brain homogenates from all experimental groups. Soluble oligomers were also examined by western blot analyses.
Samples were centrifuged (100,000 g, 20 min, 4° C.), supernatant collected and frozen at −80° C. until use. Proteins (20 μg) were separated by SDS-PAGE on a 10-20% Tris-Tricine gel, transferred to a nitrocellulose membrane, blocked for 1 h at room temp with 8% non-fat milk and incubated overnight with anti-Aβ (6E10; 1:2,500). Membranes were rinsed with TBST, exposed to anti-mouse (1:5,000) for 1 h at room temperature, washed with TBST (6×10 min) and developed using enhanced chemiluminescence. Blots were stripped and re-probed with either anti-APP (22C11; 1:1,000) or anti-GAPDH (1:10,000) to confirm equal protein loading.

[2] = system: long term potentiation (LTP) in mouse hippocampal slices; assay: Long term potentiation in hippocampal slices with 7PA2 conditioned medium; format: cell-based
Description: Long Term Potentiation. Field potentials were recorded in CA1 of mouse hippocampus by standard procedures. Swiss Webster mice between the ages of P16 and P26 were anesthetized with isoflurane. […] The hippocampus from each hemisphere was isolated and 350 μm coronal sections were made. […] Once placed in the chamber, slices were continuously perfused by a closed loop containing 15 ml of ACSF to conserve the oligomeric Aβ. […] A bipolar stimulating electrode (World Precision Inst.) was placed in the Schaffer collaterals to deliver baseline stimuli and tetani. A borosilicate glass recording electrode (2-4 MΩ) containing ACSF was positioned approximately 75-200 μm from the stimulating electrode. […] Test stimuli were delivered at 0.05 Hz. To induce LTP, 4 tetani (100 Hz for 1 second) were delivered 5 minutes apart. Field potential responses were amplified 10× using an Axopatch 200B. The data was sampled at 10 kHz and filtered at 2 kHz. Traces were analyzed using pClamp 9.2. The slope of the field potential was estimated using approximately 10-60% of the total response.

[3] = 4-month-old TgCRND8 mice, treated (n=4) vs untreated (n=4)
[4] = 4-month-old treated vs untreated TgCRND8 mice, densitometry

T1 sequence (P05067 672-713 limits assumed): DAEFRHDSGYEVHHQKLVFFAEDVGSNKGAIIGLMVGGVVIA

What does the source list for `OC1C(O)C(O)C(O)C(O)C1O` (stereo not drawn) [scyllo-cyclohexanehexol, 1,3,5/2,4,6-(scyllo-) cyclohexanehexol]?
high-molecular-weight Aβ species [1, 3]: decrease in high-molecular-weight Aβ species; smaller Aβ oligomers [1, 3]: increase in smaller oligomers; increase in low-molecular-weight trimeric Aβ species [1, 4]: 282±5%; reduction of high-molecular-weight Aβ oligomeric species [1, 4]: 25±4.5%; synaptic response in the absence of a potentiating tetanus ([2]; baseline transmission, data not shown): did not change synaptic response; direct effect on LTP ([2]; compound-treated medium from plain CHO cells): no direct effect on LTP
